Consider 1 molecule from publication PMC10987521, “An all-in-one tetrazine reagent for cysteine-selective labeling and bioorthogonal activable prodrug construction” (Nature Communications, 2024).

The nature of series [1]: Critical micelle concentration of peptide conjugates (Nile Red). The series is classed as physicochemical. To be noted: PBS (5% DMSO), Nile Red 1.0 μM, room temperature overnight; intersection of tangents. The procedure: The second-order rate constant for the labeling reactions between tetrazine 1 and Cys was determined at 25 °C in PB (30% MeCN, 20 mM, pH 8.0) under second-order conditions using a 6000+ (Quawell) UV-Vis spectrophotometer. The concentrations of cysteine and tetrazine were identical. The specific difference in absorption wavelength (300 nm) between 1 and Cys-1 was measured over time. The second-order rate constant k2 was calculated from the slope of a plot of (1/c – 1/c0) versus time.
5. Competitive labeling reaction with other nucleophilic amino acids
For the competitive labeling experiment, 10 equiv. (2 mM) of N-Fmoc-Lys, N-Fmoc-Arg, Ser, Tyr, and 1.3 equiv. […] The resulting solution was maintained at 25 °C and monitored by LC –MS. […]
Each voTz analogue (1.1 equiv.) was added to a 0.25 mL vial containing solvent. […] The chromatogram peak areas of all relevant Cys -containing species were integrated, and the yiel d was determined using the following equation: Yield (%) = Iproduct/(Istarting + Iproduct + Ioxidation + Iside product) × 100, where Istarting, Iproduct, Ioxidation, and Iside product respectively represent the average ion counts of remaining starting material, product, oxidized starting material and any side product, if present 2. […]
DLS analyses and particle zeta potential values were determined using a Nano ZS ZEN 3690 instrument (Malvern […]

The next series has as its system B16F10 cells. The series can be described thus: Cellular uptake of RGD-Dox over various time intervals using flow cytometry. The series is classed as cell-based, Mouse. The procedure:
concentration at the indicated time .
10. In vivo release evaluation of the RGD-FL
Subsequently, the cells were stained […]
laser scanning microscope. […]
μM) for 60 min. […] Blocking studies were performed by
Cells were pre-treated with 18- […]
specific times using a confocal laser scanning microscope.
11. Cell viability assays
After the incubation period, the
Subsequently, the cells were trypsinized and underwent three rinses with PBS.
(In general: In flow cytometry, cells or beads pass a laser one at a time.)

For another series, the system named is B16F10 melanoma tumor. The series can be described thus: In vivo anticancer efficacy, subcutaneous B16F10 melanoma tumor model. On the set-up: species or system BALB/c nude mice. Particulars: four i.v. courses, 3.67 μmol·kg^−1 (TCO-P4 36.7 μmol·kg^−1), n = 5. On the procedure:
Tumor-bearing mice were established by subcutaneously injecting a suspension of 5 × 10^5 B16F10 cells per mouse into the front flank of each nude mouse. When tumor volume reached 50−70 mm^3, the animals were randomly divided into five groups (n = 5). The mice were administered different compounds suspended in PBS via the tail vein every 3 days for a total of four times.
The mice underwent four treatment courses on day 0, day 3, day 6, and day 9. Tumor size and body weight were measured every day. Tumor volume was calculated via the following formula: V = 1/2 × (minor axis) × (major axis)[2].
After 12 days, the mice were sacrificed and dissected to obtain tumor tissues and main organs, including heart, liver, spleen, lung, and kidney. Subsequently, all tissues were fixed in a 4% paraformaldehyde solution, routinely paraffin-embedded and sectioned, and then stained with hematoxylin and eosin, as well as using TdT-mediated dUTP nick-end labeling (TUNEL) for subsequent pathological analysis. TUNEL-positive cells appeared fluorescent green, representing the apoptosis of tumor cells (nuclei were fluorescent blue, stained with DAPI).
13. In vivo anticancer efficacy […]
13.2 Calculation of the tumor growth inhibition values (TGI)
Tumor growth inhibition values (TGI) were calculated using the following formula: TGI (%) = (1 − RTVtreatment/
RTVcontrol)*100. RTV refers to relative tumor volume, representing the ratio of the volume at the end of treatment to the
volume at the beginning of treatment. […]

“Also recorded” adds a separate entry of the source.

Take `COc1cccc2c1C(=O)c1c(O)c3c(c(O)c1C2=O)C[C@@](O)(C(=O)CO)C[C@@H]3O[C@H]1C[C@H](NC(=O)OCc2nnc(CCSC[C@@H]3NC(=O)[C@@H](Cc4ccc(O)cc4)NC(=O)[C@H](CC(=O)O)NC(=O)CNC(=O)[C@H](CCCNC(=N)N)NC3=O)nn2)[C@H](O)[C@H](C)O1` [RGD-Dox]: the “critical micellar concentration (CMC)” value in series [1] was found to be 3.31 µM. For the same molecule, the “cellular uptake of RGD-Dox (flow cytometry)” value in the series with B16F10 cells (0.5 h, Data 1) came out at 4477; with B16F10 cells (0.5 h, Data 3) it was 4327; in the series with B16F10 cells (1 h, Data 3), 6221; with B16F10 cells (2 h, Data 1), 10116; in the series with B16F10 cells (3 h, Data 3), 12247; in the series on B16F10 cells (4 h, Data 3), 12044. The “cellular uptake over time (flow cytometry)” value in the series with B16F10 cells (B16F10, 10 μM, 37 °C, 0.5–6 h, 488/610 nm) was “rapid increase observed within the first 2 hours, followed by a plateau and saturation thereafter; also recorded: high cellular uptake after 2 h”. Moreover, the “tumor growth / inhibition in words” value in the series with B16F10 melanoma tumor is given as “did not exhibit significant tumor inhibition; also recorded: rapid tumor growth”.
